In patent publication US4599346A, “Propan-2-ol derivatives, a process for their production and medicaments containing these compounds” (Ludwig Heumann & Co., GmbH, priority 1983, dated 1986):

Experiments:
[1] = background statement; result in words; cited from earlier work
histamine-H2 -receptors = target: T1, histamine-H2 -receptors (Cavia porcellus, UniProt P47747); assay: H2-antagonistic activity: pA2 values in vitro on the isolated atrium of guinea pigs
T1 construct: in vitro on the isolated atrium of guinea pigs; from tissue; host or cells: isolated atrium of guinea pigs
T1 sequence (P47747 whole entry): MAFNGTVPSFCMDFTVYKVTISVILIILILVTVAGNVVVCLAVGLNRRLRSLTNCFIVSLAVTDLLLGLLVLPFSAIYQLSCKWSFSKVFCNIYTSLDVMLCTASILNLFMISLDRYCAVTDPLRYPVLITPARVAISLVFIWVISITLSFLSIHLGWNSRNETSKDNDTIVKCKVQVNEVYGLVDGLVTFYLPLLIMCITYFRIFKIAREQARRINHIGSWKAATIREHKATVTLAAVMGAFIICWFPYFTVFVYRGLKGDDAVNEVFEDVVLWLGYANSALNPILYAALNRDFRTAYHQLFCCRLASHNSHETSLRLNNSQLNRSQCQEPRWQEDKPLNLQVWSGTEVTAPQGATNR
Description: J. Pharmacol. Chemother.", 27, 427 (1966) and Black et al., "Nature", 236, 385 (1971)].
A recognized method of measuring H2 -antagonistic activity is based on determination of the pA2 -values in vitro on the isolated atrium of guinea pigs

SMILES | half life [1] | Kb (histamine-H2 -receptors) [nM]
CN/C(=N/CCSCc1nc[nH]c1C)NC#N [Cimetidine] | relatively short half life | –
Nc1n[s+]([O-])nc1NCC(O)COc1cccc(CN2CCCCC2)c1 (stereo not drawn) [Example 1, 4-amino-3-[2-hydroxy-3-[3-(1-piperidinylmethyl)-phenoxy]propyl]-amino-1,2,5-thiadiazole-1-oxide] | – | 49
Nc1c(NCC(O)COc2cccc(CN3CCCCC3)c2)c(=O)c1=O (stereo not drawn) [Example 2, 2-amino-1-[2-hydroxy-3-[3-(1-piperidinylmethyl)-phenoxy]propyl]-aminocyclobut-1-ene-3,4-dione] | – | 72.4
